Laboratory results from patent publication USRE38169E1, “Hyperstabilizing antisense nucleic acid binding agents” (priority 1993, dated 2003).

What was measured:
[1] = tested on: single-stranded materials; assay: Binding of drug to single strands; details: under the conditions used
Excerpt: (§1) When methyl phosphonate and synthetic RNA were used, the purities of the crude oligonucleotides were taken to be about 30%, based on the data sheet prepared by the supplier. (The remainder comprised primarily truncated sequences.) Appropriate excess amounts of these agents were included in the reactions to ensure helix formation. The corresponding sense or antisense oligonucleotides were maintained at 0.075 μmol-P in the reaction. […] Unpurified materials were used in these preliminary studies because of the relatively high cost of purified oligoribonucleotides. The majority of the contributions to A260 for these samples should be due to material that was not duplexed.

[2] = tested on: Oligo(dA)-Oligo(dT); assay: Binding of drug to duplex (NACS column, A365/A260); details: for Final D/N (CC-1065/nucleotide) Bound to Duplex: Oligo(dA)-Oligo(dT)
Experimental: (§2) Oligodeoxyribonucleotides were obtained by chemical synthesis through standard techniques on an automated synthesizer located in the Department of Veterinary Microbiology and Parasitology at Louisiana State University. Antisense MP and PS oligonucleotides were obtained from commercial sources, as was synthetic sense RNA. Poly(rA) was obtained from Sigma Chemical Co. CC-1065 was obtained from the Upjohn Company. Oligonucleotides (0.075 μmol-P each) were mixed in 0.36 ml 0.01 M Na cacodylate buffer, pH 7.2, with CC-1065 in dimethyl formamide (0.04 ml), or with dimethylformamide only. (Note that “μmol-P” denotes μmoles of phosphate; i.e., μmoles of nucleotide bases, rather than of oligonucleotides per se.) Incubations of complementary strands, with or without drug, were carried out at 37° C. for 4 hr. In the initial experiments, unbound drug was separated from nucleotide duplexes by ethanol precipitation. Equivalent results were obtained by trapping the oligonucleotides and CC-1065 on NACS-52 columns, and washing first with low-salt buffer and then with buffer containing 1M NaCl. Unbound CC-1065 was completely retained on the column. […] Samples prepared in this manner could be directly used for determination of binding of the drug to the nucleic acid (as measured by the A365/A260 ratio), with the extinction of CC-1065 absorbance at 365 nm taken as 48,000, and the extinction of the nucleic acid absorption at 260 nm based on its composition. Similar approaches were used with the drug U-71,184, with an assumed extinction of 32,000 at 365 nm.
as §1
(§3) Table 1 summarizes binding data obtained from incubations of CC-1065 with nucleotides at greater than stoichiometric levels; the levels used in these experiments were 1 drug molecule/10 nucleotide residues, which is equivalent to 4 drug molecules/20-mer duplex. […] There seemed to be no difference in drug binding between antisense oligonucleotides with a PO and those with a PS backbone. Again, the 5′-AGTTA-3′ sequence on the sense strand was presumably the primary target, and the 3′-AAGTA-5′ on the antisense probe was presumably the secondary target.

[3] = tested on: Poly(rA)-Oligo(dT); assay: Binding of drug to duplex (NACS column, A365/A260); details: for Final D/N (CC-1065/nucleotide) Bound to Duplex: Poly(rA)-Oligo(dT)
Experimental: as §2, §1, §3

[4] = tested on: DNA sense (SEQ ID NO. 1) / DNA-MP antisense duplex (PO-MP); assay: Binding of drug to duplex (NACS column, A365/A260); set-up: species or system equine infectious anemia retrovirus; details: for Final D/N (CC-1065/nucleotide) Bound to Duplex: PO-MP
Experimental: as §2, §1, §3

[5] = tested on: DNA sense (SEQ ID NO. 1) / DNA-PO antisense (SEQ ID NO. 2) duplex (PO-PO); assay: Binding of drug to duplex (NACS column, A365/A260); set-up: species or system equine infectious anemia retrovirus; details: for Final D/N (CC-1065/nucleotide) Bound to Duplex: PO-PO
Experimental: as §2, §1, §3

[6] = tested on: DNA sense (SEQ ID NO. 1) / DNA-PS antisense duplex (PO-PS); assay: Binding of drug to duplex (NACS column, A365/A260); set-up: species or system equine infectious anemia retrovirus; details: for Final D/N (CC-1065/nucleotide) Bound to Duplex: PO-PS
Experimental: as §2, §1, §3

[7] = saturation, initial CC-1065/nucleotide 0.1, 37° C., 4 hr

COc1c(O)c2c(c3cc(C(=O)N4CCc5c4c(O)c(OC)c4[nH]c(C(=O)N6CC7CC78C6=CC(=O)c6[nH]cc(C)c68)cc54)[nH]c13)CCN2C(N)=O (stereo not shown) [CC-1065]
Binding to single-stranded materials [1]: found not to bind to single-stranded materials
Final D/N (CC-1065/nucleotide) Bound to Duplex ([2]; Initial D/N 0.01): 0.008 ± 0.001
Final D/N (CC-1065/nucleotide) Bound to Duplex ([2]; Initial D/N 0.025): 0.018 ± 0.0006
Final D/N (CC-1065/nucleotide) Bound to Duplex ([2]; Initial D/N 0.04): 0.028 ± 0.006
Final D/N (CC-1065/nucleotide) Bound to Duplex ([2]; Initial D/N 0.065): 0.058 ± 0.002
Final D/N (CC-1065/nucleotide) Bound to Duplex ([2]; Initial D/N 0.10): 0.063 ± 0.002
Approx. No. CC-1065 Bound/20 Base Pairs [2, 7]: ~2.5
Final D/N (CC-1065/nucleotide) Bound to Duplex ([3]; Initial D/N 0.01): 0.003 ± 0.002
Final D/N (CC-1065/nucleotide) Bound to Duplex ([3]; Initial D/N 0.025): 0.008 ± 0.004
Final D/N (CC-1065/nucleotide) Bound to Duplex ([3]; Initial D/N 0.04): 0.011 ± 0.004
Final D/N (CC-1065/nucleotide) Bound to Duplex ([3]; Initial D/N 0.065): 0.022 ± 0.004
Final D/N (CC-1065/nucleotide) Bound to Duplex ([3]; Initial D/N 0.10): 0.028 ± 0.001
Approx. No. CC-1065 Bound/20 Base Pairs [3, 7]: ~1
Estimate of drug bound per duplex by titration with a range of MP ([4]; MP antisense oligonucleotides): # With MP antisense oligonucleotides, titration with a range of MP gave an estimate of 1 molecule bound per duplex. Precipitation with NaCl and EtOH gave similar results, but recoveries were lower. Single-strand components did not bind CC-1065.
Binding for MP antisense sequences ([4]; MP antisense sequences): about 1 drug molecule/duplex
Final D/N (CC-1065/nucleotide) Bound to Duplex ([4]; Initial D/N 0.025): 0.016 ± 0.0008
Final D/N (CC-1065/nucleotide) Bound to Duplex ([4]; Initial D/N 0.04, single determination): 0.019^4
Final D/N (CC-1065/nucleotide) Bound to Duplex ([4]; Initial D/N 0.10): 0.031 ± 0.001
Approx. No. CC-1065 Bound/20 Base Pairs [4, 7]: ~1
Final D/N (CC-1065/nucleotide) Bound to Duplex ([5]; Initial D/N 0.01): 0.009 ± 0.0004
Final D/N (CC-1065/nucleotide) Bound to Duplex ([5]; Initial D/N 0.025): 0.021 ± 0.001
Final D/N (CC-1065/nucleotide) Bound to Duplex ([5]; Initial D/N 0.04): 0.030 ± 0.0004
Final D/N (CC-1065/nucleotide) Bound to Duplex ([5]; Initial D/N 0.065): 0.049 ± 0.001
Final D/N (CC-1065/nucleotide) Bound to Duplex ([5]; Initial D/N 0.10): 0.053 ± 0.002
Approx. No. CC-1065 Bound/20 Base Pairs ([5]; saturation, initial CC-1065/nucleotide 0.1 (4 drug molecules per duplex), 37° C., 4 hr): ~2
Final D/N (CC-1065/nucleotide) Bound to Duplex ([6]; Initial D/N 0.01): 0.010 ± 0
Final D/N (CC-1065/nucleotide) Bound to Duplex ([6]; Initial D/N 0.025): 0.024 ± 0.0005
Final D/N (CC-1065/nucleotide) Bound to Duplex ([6]; Initial D/N 0.04): 0.032 ± 0.001
Final D/N (CC-1065/nucleotide) Bound to Duplex ([6]; Initial D/N 0.065): 0.047 ± 0.0005
Final D/N (CC-1065/nucleotide) Bound to Duplex ([6]; Initial D/N 0.10): 0.049 ± 0
Approx. No. CC-1065 Bound/20 Base Pairs [6, 7]: ~2
